The species entered for test [1] is Homo sapiens. Kind of test: Inhibitory concentration against U 46619 induced aggregation of human washed platelets(WP). It counts as functional.
The next test addresses T1, Thromboxane-A synthase (Homo sapiens, UniProt P24557).
T1 sequence (P24557 whole entry): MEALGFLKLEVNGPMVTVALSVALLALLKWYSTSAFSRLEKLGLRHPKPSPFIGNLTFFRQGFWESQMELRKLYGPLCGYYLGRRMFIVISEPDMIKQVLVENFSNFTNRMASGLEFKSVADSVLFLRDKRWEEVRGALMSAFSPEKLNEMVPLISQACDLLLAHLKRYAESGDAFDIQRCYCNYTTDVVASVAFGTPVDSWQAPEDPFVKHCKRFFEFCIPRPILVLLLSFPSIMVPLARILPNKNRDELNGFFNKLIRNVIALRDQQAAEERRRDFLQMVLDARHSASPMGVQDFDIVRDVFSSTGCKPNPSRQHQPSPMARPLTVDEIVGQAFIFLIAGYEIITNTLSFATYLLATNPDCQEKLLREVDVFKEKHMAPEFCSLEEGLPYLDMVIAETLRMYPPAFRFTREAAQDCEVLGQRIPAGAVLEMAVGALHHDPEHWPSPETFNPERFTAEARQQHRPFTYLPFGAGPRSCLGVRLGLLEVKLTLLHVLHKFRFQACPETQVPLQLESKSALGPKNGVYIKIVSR
Kind of test: Inhibitory concentration against thromboxane synthase enzyme from human microsomal platelet preparation.

For test [2], the species on record is Homo sapiens. The test is described as follows: Inhibitory concentration against U 46619 induced aggregation of human platelet rich plasma(PRP). It counts as functional.
For a further test, the system named is Cavia porcellus. Kind of test: Ratio of EC50 for drug treated animals over that of control was determined for U-46,619 induced ex-vivo platelet aggregation 1 hr post dosing of 10 mg/kg orally. The settings on record: route oral. The format is functional.

As for `O=C(O)CCc1ccc(CCCNS(=O)(=O)c2ccc(Cl)cc2)cc1CCc1cccnc1`, the IC50 in the test listed under Homo sapiens [1] is 0.23 µM; at Thromboxane-A synthase, 0.026 µM.

On to `O=C(O)Cc1cc(CCCNS(=O)(=O)c2ccc(Cl)cc2)cc(CCc2cccnc2)c1`, for which the half-inhibitory concentration (IC50) was 1.13 µM in the test filed under Homo sapiens [1], 0.007 µM on Thromboxane-A synthase and 10.7 µM in the test filed under Homo sapiens [2].

Consider `O=C(O)CCc1cc(CCNS(=O)(=O)c2ccc(Cl)cc2)ccc1CCc1cccnc1`, for which the half-maximal inhibitory concentration (IC50) in the test filed under Homo sapiens [1] is 0.015 µM; at Thromboxane-A synthase it was 0.015 µM; in the test filed under Homo sapiens [2] it was 0.3 µM. In addition, the Concentration ratio in the test on Cavia porcellus is 52.

Take `O=C(O)CCc1ccc(CNS(=O)(=O)c2ccc(Cl)cc2)c(CCc2cccnc2)c1`: the 50% inhibitory concentration (IC50) in the test listed under Homo sapiens [1] was 0.38 µM; on Thromboxane-A synthase, 0.043 µM.

As for `COC(=O)CCc1cc(CCNS(=O)(=O)c2ccc(Cl)cc2)cc(CCc2cccnc2)c1`, the results for the IC50 in the test filed under Homo sapiens [1], against Thromboxane-A synthase and in the test listed under Homo sapiens [2] were 0.003 µM, 0.009 µM and 0.17 µM, respectively. Also, the Concentration ratio in the test on Cavia porcellus was more than 100.

Broadly, the IC50 is the concentration needed to halve the response being measured. The low end stands for higher potency, the high end for lower potency.

The record behind these values is ChEMBL document CHEMBL1151525, “Thromboxane receptor antagonism combined with thromboxane synthase inhibition. 7. pyridinylalkyl-substituted arylsulfonylamino arylalkanoic acids” (Bioorg Med Chem Lett, 1992).
